Experimental findings from patent publication US7326721B2 (Hypnion, Inc., priority 2003, dated 2008) are described below.

Series [1] deals with Esterase, Acetylcholine (Homo sapiens, UniProt P22303). The experiment in a line: Table 12 panel: Acetylcholine esterase. The class given is biochemical. The conditions noted are these: 1.0E−6, average N=2. From the text:
(§1) The percentage inhibition (average; N=2) for these receptors is shown below in Table 12.
(§2) Values in Table 12 are expressed as percentage inhibition of specific binding, and these values represent the average of replicate tubes at each of the concentrations tested.

For series [2], the target named is Thromboxane A2 (h) (Homo sapiens, UniProt P21731). The series can be described thus: Table 12 panel: Thromboxane A2. The conditions noted are these: 1.0E−6, average N=2, read-out: percentage inhibition of specific binding.
Source text: as §1, §2

Series [3] deals with Neurokinin, NK2 (NKA) (hr) (Homo sapiens, UniProt P21452). The series can be described thus: Table 12 panel: NK2. The conditions noted are these: 1.0E−6, average N=2, read-out: percentage inhibition of specific binding.
Source text: as §1, §2

The target of series [4] is Endothelin, ET-B (h) (Homo sapiens, UniProt P24530). The experiment in a line: Table 12 panel: Endothelin, ET-B. The settings on record: 1.0E−6, average N=2, read-out: percentage inhibition of specific binding.
Source text: as §1, §2

Series [5] concerns the target T1, Orphenin (hr) (Homo sapiens, UniProt P41146).
T1 construct: expressed in transfected cells
The experiment in a line: Table 12 panel: Orphenin. The conditions noted are these: 1.0E−6, average N=2, read-out: percentage inhibition of specific binding.
Source text: as §1, §2

For series [6], the system named is Corticotropin Releasing Factor, Non-selective. The experiment in a line: Table 12 panel: CRF. The class given is binding. The conditions noted are these: 1.0E−6, average N=2.
Source text: as §1, §2

In series [7] the test system is Adenosine, Non-selective. The series can be described thus: Table 12 panel: Adenosine, Non-selective. Type of series: binding. The settings on record: 1.0E−6, average N=2.
Source text: as §1, §2

The target in series [8] is Vasopressin 1 (Homo sapiens, UniProt P37288). The series can be described thus: Table 12 panel: Vasopressin 1. The conditions noted are these: 1.0E−6, average N=2, read-out: percentage inhibition of specific binding.
Source text: as §1, §2

Series [9] is described as follows: Plasma pharmacokinetics in rats. The class given is in vivo, rat. From the text: The following pharmacokinetic parameters are computed from the individual plasma concentrations of the modified antihistamine compound using a noncompartmental approach and appropriate validated pharmacokinetic software (e.g., WinNonlin Professional). Concentration values reported as BLQ are set to zero. If concentration data are available, interim calculations are done (non-QC.d data) between periods if possible.
Dose proportionality following study medication is explored by analyzing natural log-transformed pharmacokinetic variables AUC(0-t), AUC(0-inf), and Cmax with a linear model including the natural log-transformed dose as covariates. Dose proportionality is concluded if the 95% confidence interval for the slope of the covariate includes the value of 1. Dose linearity for AUC(0-t), AUC(0-inf), and Cmax is also explored by a linear model. See, e.g., Gibaldi and Perrier, Pharmacokinetics, Second Ed., Marcel Dekker: New York, N.Y. (1982). Nominal sample collection times were used in calculations, except where actual sampling times fell outside the protocol-specified acceptable time ranges. The following parameters were estimated: • Cmax Maximum plasma concentration. • Tmax Time to maximum concentration. • Cmax and Tmax were reported directly from the concentration-time data. • AUC0-T Area under the plasma concentration-time curve from time […] to the last time point with measurable concentrations, estimated bylinear trapezoidal rule. • AUC0-00 Area under the plasma concentration-time curve extrapolated to infinity, calculated using the formula: AUC0-00=AUC0-1+C0/λ0 • Where Ct is the last measurable concentration in plasma and λz is the terminal phase elimination rate constant estimated using log-linear regression during the terminal elimination phase. The number of points used in λz calculation was determined by visual inspection of the data describing the terminal phase. At lest the last three time points with measurable values were used in λz calculation. […]

Series [10] can be described thus: Protein binding in rat plasma. Type of series: in vitro ADME. The protocol:
HY2901 was administered to rats, dogs, and cynomolgus monkeys at a dose of 3 mg/kg orally and intravenously. Plasma samples were collected from all species for pharmacokinetic analysis. […] HY2901 is 75% protein bound in rat plasma and 60% protein bound in human plasma.

Series [11] can be described thus: Acute dog study (toxicity and MTD, escalating oral doses). The settings on record: male, Beagle, in vivo; dog, oral gavage. The class given is in vivo.
In series [12] the test system is Beagles. The description is as above. Type of series: in vivo.
Series [13] relates to human hepatocytes. The series can be described thus: In vitro metabolism in human (cryopreserved) hepatocytes. Type of series: in vitro ADME. The conditions noted are these: human hepatocyte cultures. The protocol:
Metabolism of test articles in monkey and human cryopreserved hepatocytes is assayed as follows:
Sample is diluted with DMSO, to prepare 100 μM and 10 μM stocks. 0.1% formic acid in acetonitrile is prepared by the addition of 1 mL formic acid per 1 L acetonitrile (store RT for 3 months). 10 minute, 60 and 120 minute 96 well quenching plates are prepared with 150 μL acetonitrile+0.1% formic acid in each well. Store on ice or refrigerated.
Next, hepatocytes are thawed and 100 μL of cell suspension is placed into a microfuge tube with 100 μL 0.4% Trypan Blue solution and gently mix by inversion. A small amount of the stained cell suspension (approximately 15 μL) is placed into a clean hemacytometer with a coverslip. The hemacytometer is placed onto the stage of the microscope and the focus and power are adjusted until a single counting square fills the field. The number of cells in the four outside corner subdivided squares of the hemacytometer are counted. Viable cells are opalescent, round, and pale with a darker outline. Non-viable cells are dark, opaque blue.
198 μL of hepatocytes are transferred to relevant wells on dosing plate.
Plates are preincubated for at least 15 min. […]
Cytochrome P450 inhibition was studied with HY2901 in vitro. […] In addition, the in vitro rate of metabolism in rat, dog, monkey, and human hepatocyte cultures was determined for HY2901.

Neurokinin, NK2 (NKA) (hr), sequence (P21452 whole entry): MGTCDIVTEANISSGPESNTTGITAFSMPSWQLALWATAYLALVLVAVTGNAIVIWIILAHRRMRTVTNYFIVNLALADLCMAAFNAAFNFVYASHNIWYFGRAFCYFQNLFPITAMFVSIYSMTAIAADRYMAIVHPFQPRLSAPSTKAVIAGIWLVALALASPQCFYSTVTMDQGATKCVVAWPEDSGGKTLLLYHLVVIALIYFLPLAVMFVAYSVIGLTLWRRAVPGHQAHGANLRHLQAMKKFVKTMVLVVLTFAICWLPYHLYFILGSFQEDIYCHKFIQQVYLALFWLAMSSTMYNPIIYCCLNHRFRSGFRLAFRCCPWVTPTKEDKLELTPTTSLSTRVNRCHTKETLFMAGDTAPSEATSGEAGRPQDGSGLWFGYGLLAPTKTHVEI
Esterase, Acetylcholine, sequence (P22303 32-614): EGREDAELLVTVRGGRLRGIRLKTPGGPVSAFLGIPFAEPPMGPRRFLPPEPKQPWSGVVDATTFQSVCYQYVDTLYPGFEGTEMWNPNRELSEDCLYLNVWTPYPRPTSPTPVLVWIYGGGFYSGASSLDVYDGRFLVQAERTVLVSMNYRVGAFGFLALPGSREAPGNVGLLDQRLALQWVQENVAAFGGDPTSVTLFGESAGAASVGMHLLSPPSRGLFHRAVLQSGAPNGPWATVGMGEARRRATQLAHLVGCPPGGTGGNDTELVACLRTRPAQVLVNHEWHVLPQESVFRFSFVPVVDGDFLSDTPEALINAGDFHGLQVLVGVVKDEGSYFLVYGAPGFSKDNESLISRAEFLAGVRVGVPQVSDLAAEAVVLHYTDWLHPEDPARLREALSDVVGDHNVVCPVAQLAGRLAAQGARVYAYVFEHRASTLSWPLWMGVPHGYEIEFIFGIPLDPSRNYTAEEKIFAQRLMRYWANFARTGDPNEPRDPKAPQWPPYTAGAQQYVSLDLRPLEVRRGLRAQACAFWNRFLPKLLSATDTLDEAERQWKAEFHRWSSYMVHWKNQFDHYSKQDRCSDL
T1 sequence (P41146 whole entry): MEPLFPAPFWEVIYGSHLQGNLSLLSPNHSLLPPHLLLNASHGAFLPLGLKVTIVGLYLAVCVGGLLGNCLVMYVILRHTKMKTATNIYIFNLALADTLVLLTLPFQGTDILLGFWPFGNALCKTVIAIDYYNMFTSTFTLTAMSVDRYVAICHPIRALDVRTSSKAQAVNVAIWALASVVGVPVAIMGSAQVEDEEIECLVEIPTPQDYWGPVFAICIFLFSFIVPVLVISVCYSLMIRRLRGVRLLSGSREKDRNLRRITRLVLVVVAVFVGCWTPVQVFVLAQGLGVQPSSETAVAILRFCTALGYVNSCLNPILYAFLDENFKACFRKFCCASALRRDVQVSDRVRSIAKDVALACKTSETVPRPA
Thromboxane A2 (h), sequence (P21731 whole entry): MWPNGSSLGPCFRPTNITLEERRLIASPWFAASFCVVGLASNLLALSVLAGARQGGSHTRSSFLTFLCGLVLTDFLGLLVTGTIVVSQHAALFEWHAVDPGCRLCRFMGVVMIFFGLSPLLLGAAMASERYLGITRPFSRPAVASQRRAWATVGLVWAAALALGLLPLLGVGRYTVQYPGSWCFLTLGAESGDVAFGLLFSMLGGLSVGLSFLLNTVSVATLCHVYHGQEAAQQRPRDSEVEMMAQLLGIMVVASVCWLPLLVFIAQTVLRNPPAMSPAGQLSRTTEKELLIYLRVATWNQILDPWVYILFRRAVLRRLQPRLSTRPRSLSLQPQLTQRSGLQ
Vasopressin 1, sequence (P37288 whole entry): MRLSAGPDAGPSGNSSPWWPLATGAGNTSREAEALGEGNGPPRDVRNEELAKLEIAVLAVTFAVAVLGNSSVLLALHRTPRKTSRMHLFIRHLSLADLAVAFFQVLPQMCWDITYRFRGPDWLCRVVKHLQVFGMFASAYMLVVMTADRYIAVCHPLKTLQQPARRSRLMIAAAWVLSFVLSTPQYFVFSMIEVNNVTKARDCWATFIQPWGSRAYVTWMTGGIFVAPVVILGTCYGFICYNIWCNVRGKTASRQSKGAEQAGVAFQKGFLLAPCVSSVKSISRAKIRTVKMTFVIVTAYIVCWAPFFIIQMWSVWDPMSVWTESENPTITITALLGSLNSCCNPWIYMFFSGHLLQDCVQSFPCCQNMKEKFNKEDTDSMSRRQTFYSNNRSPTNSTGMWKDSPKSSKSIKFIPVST
Endothelin, ET-B (h), sequence (P24530 27-442): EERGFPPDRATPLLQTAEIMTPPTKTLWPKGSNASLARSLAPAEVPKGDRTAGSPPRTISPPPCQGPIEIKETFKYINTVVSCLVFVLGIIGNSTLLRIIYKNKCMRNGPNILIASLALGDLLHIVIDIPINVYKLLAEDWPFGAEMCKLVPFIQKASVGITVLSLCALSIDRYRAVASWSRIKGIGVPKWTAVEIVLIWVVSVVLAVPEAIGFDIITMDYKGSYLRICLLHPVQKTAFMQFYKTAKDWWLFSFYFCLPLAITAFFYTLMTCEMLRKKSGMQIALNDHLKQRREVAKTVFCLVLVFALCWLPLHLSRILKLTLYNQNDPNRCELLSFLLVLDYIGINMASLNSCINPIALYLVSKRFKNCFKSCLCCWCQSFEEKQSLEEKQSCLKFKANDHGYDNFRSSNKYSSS

In the case of `CC(CC(=O)O)N1CCC(=C2c3ccc(F)cc3COc3ccccc32)CC1` (stereo not drawn) [Compound 37], the percentage inhibition in series [1] came out at 2.54%. The inhibition at 1 µM in series [2] was 6.55%; in series [3], -4.17%; in series [4], -6.51%; in series [5] it was 3.53%; in [8] it was 11.6%. In addition, the “percentage inhibition of specific binding” value in series [6] was 4.31%; in [7] it was 6.49%.

For the compound `CC(C)(CN1CCC(=C2c3ccc(F)cc3COc3ccccc32)CC1)C(=O)O` [Compound 49a], the half-life in series [9] (plasma, rat, 3 mg/kg) is 66 min. Further, the Tmax in [9] (plasma, rat, 3 mg/kg, after oral administration) was determined as 15 min. For the same compound, in series [9] (rats, most efficacious dose of 3 mg/kg in the sleep assay), the Peak plasma levels entry was “less than 1.5 mM”. In [10], this compound displayed a protein bound of 75%. Besides, the MTD at 5 days in [11] was 75 mg/kg. The “clinical signs of toxicity” value is “No clinical signs of toxicity” in series [12] (25 mg/kg oral gavage); “body tremors, mild to moderate ataxia, excessive salivation and hypoactivity” in [12] (40 mg/kg on Day 5); “Body tremors, mild to severe ataxia, and hypoactivity” in [12] (50 mg/kg oral gavage); “Tremors (entire body, hind limbs, and/or head), mild to moderate ataxia, hypoactivity” in series [12] (75 mg/kg oral gavage). Further, the blood pressure entry in [12] (40 mg/kg) is on record as “No significant changes”. Also, the heart rates result in series [12] (40 mg/kg) is “unaffected”. For the same compound, the body weight result in series [12] (escalating doses 25-75 mg/kg, 40 mg/kg Day 5) is reported as “minimal effect on body weight”. For the same compound, in [13], the in vitro metabolism result was “little metabolism was observed”.

As a reminder, the inhibition is the drop in the measured response relative to a control, in per cent. For orientation: half-life means the time in which the quantity being followed falls by half. Read a low half-life as rapid decline. A word on the Tmax: it is the time from dosing to the highest level.
